Measured values taken from PMC10119930, “Dual Molecules Targeting 5-HT6 and GABA-A Receptors as a New Approach to Combat Depression Associated with Neuroinflammation” (ACS Chemical Neuroscience, 2023).
Like-named read-outs stand apart in the source and are kept apart here.

Biological target: 5-HT6 receptor (Homo sapiens, UniProt P50406)
Experiment: Radioligand binding assay for 5-HT6 receptor ([3H]-LSD displacement)
Parameters: expressed in transfected cells; host or cells: HEK-293 (cryopreserved membranes)
Conditions: competitive replacement of [3H]-LSD, ±S.E.M.
Protocol: To determine the affinity for 5-HT6, the cryopreserved membranes from HEK-293 cells stably transfected with the human recombinant 5-HT6 receptor were used.[40] Preparation of the tested compounds included preparation of stock solutions in DMSO (1 mM) and subsequent serial dilutions (10^–10–10^–5 M) of tested compounds in the appropriate buffer (50 mM Tris buffer, pH 7.4, 10 mM MgCl2, 0.5 mM ethylenediaminetetraacetic acid). The serial dilutions were acquired directly on a 96-well microplate. The reaction mix included 50 μL of appropriate concentration of tested molecule, 50 μL of [^3H]LSD 2.5/2.0 nM, and 150 μL of diluted membranes. The microplate containing the reaction mix was protected with a sealing tape and incubated for 60 min at 37 °C. Quenching of the reaction mixtire included: rapid filtration through UniFilter 96 GF/B filter microplate and rapid washes using 200 μL 50 mM assay buffer and vacuum manifold and 96-well pipettor. The collected microplates were dried overnight at 37 °C. The UniFilter bottoms were sealed, and then 30 μL of Betaplate Scint liquid scintillator (PerkinElmer) was added to each well. […] The obtained data were fit to a one-site curve-fitting equation using Prism 5 software (GraphPad Software), and the Ki values were determined using the Cheng–Prusoff equation. Radioligand binding was performed in duplicates.

5-HT6 receptor, sequence (P50406 whole entry): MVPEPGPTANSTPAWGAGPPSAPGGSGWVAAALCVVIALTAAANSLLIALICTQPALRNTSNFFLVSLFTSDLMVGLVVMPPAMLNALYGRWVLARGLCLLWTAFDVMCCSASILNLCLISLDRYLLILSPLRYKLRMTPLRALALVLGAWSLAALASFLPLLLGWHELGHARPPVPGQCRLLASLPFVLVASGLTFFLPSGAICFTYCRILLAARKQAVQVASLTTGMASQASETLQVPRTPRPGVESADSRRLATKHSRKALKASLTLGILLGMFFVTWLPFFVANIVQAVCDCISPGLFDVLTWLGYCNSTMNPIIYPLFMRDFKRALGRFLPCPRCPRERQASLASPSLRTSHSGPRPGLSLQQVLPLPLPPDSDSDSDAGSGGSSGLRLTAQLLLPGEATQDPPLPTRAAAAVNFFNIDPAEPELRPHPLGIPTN

| Structure (SMILES) | Ki (read-out: 5-HT6R Ki) [µM] | Ki (5-HT6R Ki) [µM] |
| --- | --- | --- |
| O=c1[nH]c2c(N3CCNCC3)cccc2n1Cc1ccccc1 [Compound 2, 1-benzyl-4-(piperazin-1-yl)-1,3-dihydro-2H-benzo[d]imidazol-2-one] |  | 0.0002 ± 2e-05 |
| O=c1oc2c(N3CCNCC3)cccc2n1Cc1ccccc1 [Compound 3, 3-Benzyl-7-(piperazin-1-yl)benzo[d]oxazol-2(3H)-one] |  | 0.004 ± 0.0002 |
| O=C1COc2c(N3CCNCC3)cccc2N1Cc1ccccc1 [Compound 4, 4-benzyl-8-(piperazin-1-yl)-2H-benzo[b][1,4]oxazin-3(4H)-one] |  | 0.001 ± 0.0002 |
| c1ccc(CN2CCOc3c(N4CCNCC4)cccc32)cc1 [Compound 5, 4-(4-Benzyl-3,4-dihydro-2H-benzo[b][1,4]oxazin-8-yl)piperazin-1-ium Chloride] |  | 0.06 ± 0.0075 |

Continued, in another order:

| Ki (read-out: 5-HT6R Ki) [µM] | Structure (SMILES) | Ki (5-HT6R Ki) [µM] |
| --- | --- | --- |
| 0.04 ± 0.003 | O=c1[nH]c2c(N3CCN(CCO)CC3)cccc2n1Cc1ccccc1 [Compound 7, 1-Benzyl-4-(4-(2-hydroxyethyl)piperazin-1-yl)-1,3-dihydro-2H-benzo[d]imidazol-2-one] |  |
| 0.15 ± 0.0076 | O=c1oc2c(N3CCN(CCO)CC3)cccc2n1Cc1ccccc1 [Compound 8, 3-Benzyl-7-(4-(2-hydroxyethyl)piperazin-1-yl)benzo[d]oxazol-2(3H)-one] |  |
| 0.004 ± 0.0004 | O=C1COc2c(N3CCN(CCO)CC3)cccc2N1Cc1ccccc1 [Compound 9, 4-Benzyl-8-(4-(2-hydroxyethyl)piperazin-1-yl)-2H-benzo[b][1,4]oxazin-3(4H)-one] |  |
| 0.024 ± 0.002 | OCCN1CCN(c2cccc3c2OCCN3Cc2ccccc2)CC1 [Compound 10, 2-(4-(4-Benzyl-3,4-dihydro-2H-benzo[b][1,4]oxazin-8-yl)piperazin-1-yl)ethan-1-ol] |  |
